The values that follow come from patent US11046710B2, “Sulfonamide compounds” (DAIICHI SANKYO COMPANY, LIMITED, priority 2016, dated 2021).

The target of this assay is human TNAP (Homo sapiens (Human), UniProt P05186). Nature of the assay: Inhibitory test of TNAP activity (pNPP substrate, p-nitrophenol production). The conditions noted are these: human TNAP from transfected COS1 culture supernatant, 60 minutes at room temperature. It is filed as biochemical. On the procedure: COS1 cells (DS Pharma Biomedical Co., Ltd.) were transfected with human TNAP (OriGene Technologies, Inc.) using Lipofectamine LTX & Plus reagent (Invitrogen Corp.). On the next day, the medium was replaced with a fresh medium, and the cells were cultured in an incubator for 3 days. After 3 days, the culture supernatant was collected and concentrated by centrifugation at 5000 G for 30 minutes using Amicon 14, 10^4 cut (Merck Millipore). The concentrated culture supernatant was dialyzed against 5 L of 50 mM Tris/200 mM NaCl/1 mM MgCl2/20 μM ZnCl2 twice and used as an enzyme source (enzyme solution). The substrate pNPP (ProteoChem Inc.) was adjusted to 3.1 mM with Milli-Q water, and a solution of each test compound dissolved in dimethyl sulfoxide (DMSO; Wako Pure Chemical Industries, Ltd.) by 6 serial dilutions at a 5-fold common ratio from 100 μM, or DMSO was added thereto at a final concentration of 1% by volume. The enzyme solution adjusted to 2 μg/mL with an assay buffer (200 mM Tris/2 mM MgCl2/0.04 mM ZnCl2/0.01% Tween 20) was added in the same amount of the substrate solution and incubated at room temperature for 60 minutes. Then, the absorbance (ABS: 405 nm) was measured using a microplate reader (model plus 384, Molecular Devices, LLC), and the concentration of produced p-nitrophenol was calculated.
Sequence of human TNAP (P05186 18-524): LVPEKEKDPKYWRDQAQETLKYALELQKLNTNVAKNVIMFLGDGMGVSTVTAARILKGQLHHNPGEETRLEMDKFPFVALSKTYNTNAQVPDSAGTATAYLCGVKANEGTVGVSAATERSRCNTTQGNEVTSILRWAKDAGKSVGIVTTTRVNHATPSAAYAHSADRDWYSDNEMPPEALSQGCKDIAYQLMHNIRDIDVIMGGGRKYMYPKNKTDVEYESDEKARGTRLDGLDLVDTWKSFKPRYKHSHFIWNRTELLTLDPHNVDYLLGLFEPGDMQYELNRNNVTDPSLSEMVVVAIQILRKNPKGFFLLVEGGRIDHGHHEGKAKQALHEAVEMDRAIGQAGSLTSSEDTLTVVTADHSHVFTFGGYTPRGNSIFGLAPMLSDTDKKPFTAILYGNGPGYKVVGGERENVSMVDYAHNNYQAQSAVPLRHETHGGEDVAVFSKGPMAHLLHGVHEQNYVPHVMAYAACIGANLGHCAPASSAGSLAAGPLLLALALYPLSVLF

In turn, `O=C1c2cc(NS(=O)(=O)c3cc(F)ccc3OC(F)(F)F)cnc2OC[C@H]2C[C@@H](O)CN12` [Example 39, 5-fluoro-N-[(8R,9aR)-8-hydroxy-5-oxo-8,9,9a,10-tetrahydro-5H,7H-pyrido[3,2-f]pyrrolo[2,1-c][1,4]oxazepin-3-yl]-2-(trifluoromethoxy)benzenesulfonamide] displayed an IC50 of 2.4 nM. `COc1ccc(Cl)cc1S(=O)(=O)Nc1cnc2c(c1)CN1C(=O)CN(C)C[C@H]1CO2` [Example 64, 5-chloro-2-methoxy-N-[(10aS)-9-methyl-7-oxo-7,8,9,10,10a, 11-hexahydro-5H-pyrazino[2,1-c]pyrido[3,2-f][1,4]oxazepin-3-yl]benzenesulfonamide] came in with an IC50 of 1.8 nM. `COc1ccc(Cl)cc1S(=O)(=O)Nc1cnc2c(c1)-n1nccc1CCO2` [Example 26, 5-chloro-N-(4,5-dihydropyrazolo[1,5-d]pyrido[2,3-b][1,4]oxazepin-9-yl)-2-methoxybenzenesulfonamide] came in with a concentration for half-maximal inhibition (IC50) of 29.4 nM.

Consider `CCc1nnc2n1CCOc1ncc(NS(=O)(=O)c3cc(Cl)ccc3OC)cc1-2` [Example 3, 5-chloro-N-(3-ethyl-5,6-dihydropyrido[3,2-f][1,2,4]triazolo[4,3-d][1,4]oxazepin-10-yl)-2-methoxybenzenesulfonamide], for which half-maximal inhibition (IC50) required 2.4 nM.

`COc1ccc(F)cc1S(=O)(=O)Nc1cnc2c(c1)C(=O)N1C[C@@H](O)C[C@@H]1CO2` [Example 31, 5-fluoro-N-[(8S,9aR)-8-hydroxy-5-oxo-8,9,9a,10-tetrahydro-5H,7H-pyrido[3,2-f]pyrrolo[2,1-c][1,4]oxazepin-3-yl]-2-methoxybenzenesulfonamide] gave an IC50 of 1.2 nM.

`COc1ncc(Cl)cc1S(=O)(=O)Nc1cnc2c(c1)-c1ccnn1[C@@H](C)CO2` [Example 21, 5-chloro-2-methoxy-N-[(5S)-5-methyl-5,6-dihydropyrazolo[1,5-d]pyrido[3,2-f][1,4]oxazepin-10-yl]pyridine-3-sulfonamide] showed an IC50 of 3 nM. On to `COc1ccc(Cl)cc1S(=O)(=O)Nc1cnc2c(c1)-c1nccn1CCO2` [Example 6, 5-chloro-N-(5,6-dihydroimidazo[1,2-d]pyrido[3,2-f][1,4]oxazepin-10-yl)-2-methoxybenzenesulfonamide], for which the IC50 stood at 5.9 nM. The result for `COc1ccc(Cl)cc1S(=O)(=O)Nc1cnc2c(c1)-c1ccnn1[C@H](C)CO2` [Example 17, 5-chloro-2-methoxy-N-[(5R)-5-methyl-5,6-dihydropyrazolo[1,5-d]pyrido[3,2-f][1,4]oxazepin-10-yl]benzenesulfonamide] reads 6.9 nM; that for `CNC(=O)O[C@H]1C[C@@H]2COc3ncc(NS(=O)(=O)c4cc(Cl)ccc4OC)cc3C(=O)N2C1` [Example 48, (8S,9aR)-3-{[(5-chloro-2-methoxyphenyl)sulfonyl]amino}-5-oxo-8,9,9a,10-tetrahydro-5H, 7H-pyrido[3,2-f]pyrrolo[2,1-c][1,4]oxazepin-8-yl methylcarbamate], 0.6 nM; that for `COc1ccc(Cl)cc1S(=O)(=O)Nc1cnc2c(c1)C(=O)N1CC(F)(F)C[C@@H]1CO2` [Example 45, 5-chloro-N-[(9aR)-8,8-difluoro-5-oxo-8,9,9a,10-tetrahydro-5H,7H-pyrido[3,2-f]pyrrolo[2,1-c][1,4]oxazepin-3-yl]-2-methoxybenzenesulfonamide], 2 nM. Under `COc1ccc(Cl)cc1S(=O)(=O)Nc1cnc2c(c1)-c1nnc(C(C)C)n1CCO2` [Example 5, 5-chloro-2-methoxy-N-[3-(propan-2-yl)-5,6-dihydropyrido[3,2-f][1,2,4]triazolo[4,3-d][1,4]oxazepin-10-yl]benzenesulfonamide] stands 2.8 nM. `CCOc1ncc(F)cc1S(=O)(=O)Nc1cnc2c(c1)-c1ccnn1[C@@H](C)CO2` [Example 24, 2-ethoxy-5-fluoro-N-[(5S)-5-methyl-5,6-dihydropyrazolo[1,5-d]pyrido[3,2-f][1,4]oxazepin-10-yl]pyridine-3-sulfonamide] displayed a half-inhibitory concentration (IC50) of 2.3 nM. The result for `COc1ccc(Cl)cc1S(=O)(=O)Nc1cnc2c(c1)CN1C(=O)[C@@H](O)C[C@H]1CO2` [Example 54, 5-chloro-N-[(8S,9aS)-8-hydroxy-7-oxo-8,9,9a,10-tetrahydro-5H,7H-pyrido[3,2-f]pyrrolo[2,1-c][1,4]oxazepin-3-yl]-2-methoxybenzenesulfonamide] reads 1.1 nM; that for `CCOc1ccc(F)cc1S(=O)(=O)Nc1cnc2c(c1)-c1ccnn1[C@@H](C)CO2` [Example 18, 2-ethoxy-5-fluoro-N-[(5S)-5-methyl-5,6-dihydropyrazolo[1,5-d]pyrido[3,2-f][1,4]oxazepin-10-yl]benzenesulfonamide], 2.8 nM. Consider `COc1ccc(Cl)cc1S(=O)(=O)Nc1cnc2c(c1)C(=O)N1CCC[C@H]1CO2` [Example 27, 5-chloro-2-methoxy-N-[(9aS)-5-oxo-8,9,9a,10-tetrahydro-5H,7H-pyrido[3,2-f]pyrrolo[2,1-c][1,4]oxazepin-3-yl]benzenesulfonamide], for which the half-maximal inhibitory concentration (IC50) was found to be 13.2 nM. Take `COc1ccc(Cl)cc1S(=O)(=O)Nc1cnc2c(c1)C(=O)N1CC[C@@H](O)[C@@H]1CO2` [Example 40, 5-chloro-N-[(9R,9aS)-9-hydroxy-5-oxo-8,9,9a,10-tetrahydro-5H,7H-pyrido[3,2-f]pyrrolo[2,1-c][1,4]oxazepin-3-yl]-2-methoxybenzenesulfonamide]: the concentration for half-maximal inhibition (IC50) amounted to 5.8 nM.

The compound `COc1ccc(Cl)cc1S(=O)(=O)Nc1cnc2c(c1)C(=O)N1C[C@@H](OC)C[C@@H]1CO2` [Example 46, 5-chloro-2-methoxy-N-[(8S,9aR)-8-methoxy-5-oxo-8,9,9a,10-tetrahydro-5H,7H-pyrido[3,2-f]pyrrolo[2,1-c][1,4]oxazepin-3-yl]benzenesulfonamide] yielded an IC50 of 0.5 nM. The compound `COc1ccc(Cl)cc1S(=O)(=O)Nc1cnc2c(c1)C(=O)N1C[C@@H](O)C[C@@H]1CO2` [Example 30, 5-chloro-N-[(8S,9aR)-8-hydroxy-5-oxo-8,9,9a,10-tetrahydro-5H,7H-pyrido[3,2-f]pyrrolo[2,1-c][1,4]oxazepin-3-yl]-2-methoxybenzenesulfonamide] displayed a 50% inhibitory concentration (IC50) of 0.9 nM. For `O=C1COCC2COc3ncc(NS(=O)(=O)c4cc(Cl)ccc4OC(F)(F)F)cc3CN12` (stereo not shown) [Example 63], the concentration for half-maximal inhibition (IC50) is 1.4 nM. `O=C1c2cc(NS(=O)(=O)c3cc(Cl)ccc3OC(F)(F)F)cnc2OC[C@H]2[C@@H](O)CCN12` [Example 42, 5-chloro-N-[(9S,9aS)-9-hydroxy-5-oxo-8,9,9a,10-tetrahydro-5H,7H-pyrido[3,2-f]pyrrolo[2,1-c][1,4]oxazepin-3-yl]-2-(trifluoromethoxy)benzenesulfonamide] yielded a half-maximal inhibitory concentration (IC50) of 0.4 nM.

`O=C1c2cc(NS(=O)(=O)c3cc(Cl)ccc3OC(F)(F)F)cnc2OC[C@H]2C[C@H](O)CN12` [Example 32, 5-chloro-N-[(8S,9aR)-8-hydroxy-5-oxo-8,9,9a,10-tetrahydro-5H,7H-pyrido[3,2-f]pyrrolo[2,1-c][1,4]oxazepin-3-yl]-2-(trifluoromethoxy)benzenesulfonamide] had a half-inhibitory concentration (IC50) of 0.9 nM. Under `COC(=O)N[C@@H]1C[C@@H]2COc3ncc(NS(=O)(=O)c4cc(Cl)ccc4OC)cc3C(=O)N2C1` [Example 50, methyl [(8R,9aR)-3-{[(5-chloro-2-methoxyphenyl)sulfonyl]amino}-5-oxo-8,9,9a,10-tetrahydro-5H, 7H-pyrido[3,2-f]pyrrolo[2,1-c][1,4]oxazepin-8-yl]carbamate] stands 0.5 nM.

Usually IC50 stands for the concentration that gives 50% inhibition. Read a high IC50 as a need for much substance.
